Assay type in all cases: ADME, organism-based
Series [1] can be described thus: Percentage of administered dose recovered as monocarboxylic acid derivative of mitoxantrone in urine within 48 h of drug administration. On the set-up: dosed compound id 2.58283e+06, dosed compound name Mitoxantrone. The conditions noted are these: human, in vivo.
Series [2] in a line: Percentage of administered dose recovered as unchanged drug in urine within 48 h of drug administration. As to conditions: human, read-out: Compound recovery. Also noted: dosed compound id 2.58283e+06, dosed compound name Mitoxantrone.
Series [3] is described as follows: Percentage of administered dose recovered as dicarboxylic acid derivative of mitoxantrone in urine within 48 h of drug administration. As to conditions: human, in vivo.
The nature of series [4]: Percentage of administered dose recovered as idarubicinol in urine after intravenous administration. On the set-up: dosed compound id 2.58283e+06, dosed compound name Idarubicin, route intravenous. The conditions noted are these: human, in vivo.
Series [5] in a line: Percentage of administered dose recovered as idarubicinol in urine after oral administration. The conditions noted are these: human, in vivo. Also noted: dosed compound id 2.58283e+06, dosed compound name Idarubicin, route oral.
A short description of series [6]: Percentage of administered dose recovered as unchanged drug in urine after intravenous administration. On the set-up: dosed compound id 2.58283e+06, dosed compound name Idarubicin, route intravenous. As to conditions: human, read-out: Compound recovery.
The nature of series [7]: Percentage of administered dose recovered as unchanged drug in urine after oral administration. As to conditions: human, read-out: Compound recovery. Also noted: dosed compound id 2.58283e+06, dosed compound name Idarubicin, route oral.

Our source for the Compound recovery and dose excreted values is ChEMBL document CHEMBL3706496, “Therapeutic Drugs” (1999).

As for `O=C(O)CNCCNc1ccc(NCCNCCO)c2c1C(=O)c1c(O)ccc(O)c1C2=O`, the Compound recovery in series [1] was 0.5%.
For the compound `O=C1c2c(O)ccc(O)c2C(=O)c2c(NCCNCCO)ccc(NCCNCCO)c21` [MITOXANTRONE], the dose excreted at 48 h in series [2] came to 4.4%.
In series [3], `O=C(O)CNCCNc1ccc(NCCNCC(=O)O)c2c1C(=O)c1c(O)ccc(O)c1C2=O` returned a Compound recovery of 0.3%.
Regarding `CC(O)[C@]1(O)Cc2c(O)c3c(c(O)c2[C@@H](O[C@H]2C[C@H](N)[C@H](O)[C@H](C)O2)C1)C(=O)c1ccccc1C3=O` (some centres not stated), the Compound recovery in series [4] is listed as 15%; in series [5] it was 5%.
With `CC(=O)[C@]1(O)Cc2c(O)c3c(c(O)c2[C@@H](O[C@H]2C[C@H](N)[C@H](O)[C@H](C)O2)C1)C(=O)c1ccccc1C3=O` [IDARUBICIN], the results for the dose excreted in series [6] and in series [7] were 2% and 0.6%, respectively.
